# The supplement of paper PMC11061612
# Tests used:
# [1] = compound: CC(C)n1c(=O)n(C)c2cnc3cc(F)c(-c4ccc(OCCCN5CCCCC5)nc4)cc3c21 [AZD1390]; conditions: max 0.3 µM
# Procedure, shortened: (§1)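 Plates with 1536 wells received cancer cell lines in 7.5 μl of DMEM/F12 or RPMI containing 10% FBS. After 24 hours at 37°C and 5% CO2, cells were dosed for 72 hours with final DMSO typically 0.2%, and viability was read by CellTiter-Glo 2.0 luminescence scaled between blank-well and DMSO-well means. The single-agent IC50 was taken from a logistic fit of the dose responses made with a non-linear mixed effects model, that logistic curve having two parameters.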
# [2] = compound: CC(=O)c1c(C)c2cnc(Nc3ccc(N4CCNCC4)cn3)nc2n(C2CCCC2)c1=O [Palbociclib]; conditions: max 10 µM
# Procedure, shortened: as §1
# [3] = compound: Cc1nc(-c2cn3c(n2)-c2ccc(-c4cnn(C(C)(C)C(N)=O)c4)cc2OCC3)n(C(C)C)n1 [Taselisib]; conditions: max 10 µM
# Procedure, shortened: as §1
# [4] = compound: N#Cc1cnc(Nc2cc(NC[C@H]3CNCCO3)c(C(F)(F)F)cn2)cn1 [SRA737]; conditions: max 10 µM
# Procedure, shortened: as §1
# [5] = compound: CC1(C)CCC(CN2CCN(c3ccc(C(=O)NS(=O)(=O)c4ccc(NCC5CCOCC5)c([N+](=O)[O-])c4)c(Oc4cnc5[nH]ccc5c4)c3)CC2)=C(c2ccc(Cl)cc2)C1 [Venetoclax]; conditions: max 1 µM
# Procedure, shortened: as §1
# [6] = compound: COc1cc([C@@H]2c3cc4c(cc3[C@@H](O[C@@H]3O[C@@H]5CO[C@@H](C)O[C@H]5[C@H](O)[C@H]3O)[C@H]3COC(=O)[C@H]23)OCO4)cc(OC)c1O [Etoposide]; conditions: max 10 µM
# Procedure, shortened: as §1
# [7] = compound: C[C@@H](Oc1cc(-c2cnn(C3CCNCC3)c2)cnc1N)c1c(Cl)ccc(F)c1Cl [Crizotinib]; conditions: max 10 µM
# Procedure, shortened: as §1
# [8] = compound: CN(C)CCCOc1ccc(-c2ccc3ncc4c(c3c2)n(C2CCOCC2)c(=O)n4C)cn1 [AZD0156]; conditions: max 3 µM
# Procedure, shortened: as §1
# [9] = compound: COc1nnc2ccc(N3CCC(c4ccc(OCCN5CCN(C)C(=O)[C@H]5C)cc4)CC3)nn12 [AZD5153]; conditions: max 1 µM
# Procedure, shortened: as §1
# [10] = compound: C=CCn1c(=O)c2cnc(Nc3ccc(N4CCN(C)CC4)cc3)nc2n1-c1cccc(C(C)(C)O)n1 [AZD1775]; conditions: max 3 µM
# Procedure, shortened: as §1
# [11] = compound: Cc1c2c(nn1C)CSCc1cc(n(C)n1)CSc1cc(c3ccccc3c1)OCCCc1c(C(=O)O)n(C)c3c-2c(Cl)ccc13 [AZD5991]; conditions: max 1 µM
# Procedure, shortened: as §1
# [12] = compound: COc1cc(Nc2ncc3c(n2)-c2ccc(Cl)cc2C(c2c(F)cccc2OC)=NC3)ccc1C(=O)O [Alisertib]; conditions: max 10 µM
# Procedure, shortened: as §1
# [13] = compound: Cc1cc2ncnn2cc1Nc1ncc2c(n1)n(C1CCOCC1)c(=O)n2C [AZD7648]; conditions: max 10 µM
# Procedure, shortened: as §1
# [14] = compound: COc1cccc2c1C(=O)c1c(O)c3c(c(O)c1C2=O)C[C@@](O)(C(=O)CO)C[C@@H]3O[C@H]1C[C@H](N)[C@H](O)[C@H](C)O1 [Doxorubicin]; conditions: max 1 µM
# Procedure, shortened: as §1
# [15] = compound: C1CN(CCC1(C(=O)N[C@@H](CCO)C2=CC=C(C=C2)Cl)N)C3=NC=NC4=C3C=CN4 [AZD5363]; conditions: max 10 µM
# Procedure, shortened: as §1
# [16] = compound: O=C(c1cc(Cc2n[nH]c(=O)c3ccccc23)ccc1F)N1CCN(C(=O)C2CC2)CC1 [Olaparib]; conditions: max 10 µM
# Procedure, shortened: as §1
# [17] = compound: C[C@@H](c1ccc2nccn2c1)n1nnc2ncc(-c3cnn(C)c3)nc21 [Savolitinib]; conditions: max 1 µM
# Procedure, shortened: as §1
# [18] = compound: CC1=C(C(=CC=C1)Cl)NC(=O)C2=CN=C(S2)NC3=CC(=NC(=N3)C)N4CCN(CC4)CCO [Dasatinib]; conditions: max 2 µM
# Procedure, shortened: as §1
# [19] = compound: CC(=O)Nc1cccc(-n2c(=O)n(C3CC3)c(=O)c3c(Nc4ccc(I)cc4F)n(C)c(=O)c(C)c32)c1 [Trametinib]; conditions: max 1 µM
# Procedure, shortened: as §1
# [20] = compound: C[C@@H]1COCCN1C2=NC(=NC(=C2)C3(CC3)[S@](=N)(=O)C)C4=C5C=CNC5=NC=C4 [AZD6738]; conditions: max 10 µM
# Procedure, shortened: as §1
# [21] = compound: CN(CC[C@H](CSC1=CC=CC=C1)NC2=C(C=C(C=C2)S(=O)(=O)NC(=O)C3=CC=C(C=C3)N4CCC(CC4)[C@H](C5=CC=CC=C5C6=CC=C(C=C6)Cl)O)S(=O)(=O)C(F)(F)F)CCO [AZD4320]; conditions: max 1 µM
# Procedure, shortened: as §1
# [22] = compound: Cn1cnc2c(F)c(Nc3ccc(Br)cc3Cl)c(C(=O)NOCCO)cc21 [Selumetinib]; conditions: max 10 µM
# Procedure, shortened: as §1
# [23] = compound: CCc1c2c(nc3ccc(O)cc13)-c1cc3c(c(=O)n1C2)COC(=O)[C@]3(O)CC [SN-38]; conditions: max 0.3 µM
# Procedure, shortened: as §1
# [24] = compound: CS(=O)(=O)CCNCc1ccc(-c2ccc3ncnc(Nc4ccc(OCc5cccc(F)c5)c(Cl)c4)c3c2)o1 [Lapatinib]; conditions: max 10 µM
# Procedure, shortened: as §1
# [25] = compound: O=C(Nc1ccc2[nH]nc(-c3ccncc3)c2c1)[C@@H]1CCN(CC(=O)N2CCN(c3ccc(-c4ncccn4)cc3)CC2)C1; conditions: max 5 µM
# Procedure, shortened: as §1
# [26] = compound: CC(=O)O[C@H]1C(=O)[C@@]2(C)[C@H]([C@H](OC(=O)c3ccccc3)[C@]3(O)C[C@H](OC(=O)[C@H](O)[C@@H](NC(=O)c4ccccc4)c4ccccc4)C(C)=C1C3(C)C)[C@]1(OC(C)=O)CO[C@@H]1C[C@@H]2O [Paclitaxel]; conditions: max 3 µM
# Procedure, shortened: as §1
# [27] = compound: O=c1[nH]cc(F)c(=O)[nH]1 [5-Fluorouracil]; conditions: max 20 µM
# Procedure, shortened: as §1
# [28] = compound: C[C@@H](Nc1cc(F)cc(F)c1)c1cc(C(=O)N(C)C)cc2c(=O)cc(N3CCOCC3)oc12 [AZD8186]; conditions: max 10 µM
# Procedure, shortened: as §1
# [29] = compound: NC1(c2ccc(-c3nc4ccn5c(=O)[nH]nc5c4cc3-c3ccccc3)cc2)CCC1 [MK-2206]; conditions: max 10 µM
# Procedure, shortened: as §1
# [30] = compound: Nc1ccn([C@@H]2O[C@H](CO)[C@@H](O)C2(F)F)c(=O)n1 [Gemcitabine]; conditions: max 0.3 µM
# Procedure, shortened: as §1
# [31] = compound: COc1cc2ncnc(Nc3ccc(F)c(Cl)c3)c2cc1OCCCN1CCOCC1 [Gefitinib]; conditions: max 10 µM
# Procedure, shortened: as §1
# [32] = compound: C1CC(C1)(C(=O)[O-])C(=O)[O-].N.N.[Pt+2] [Carboplatin]; conditions: max 10 µM
# Procedure, shortened: as §1
# [33] = compound: CC1=CN2[C@@H](C1)C=NC3=CC(=C(C=C3C2=O)OC)OCCCCCOC4=C(C=C5C(=C4)N=C[C@@H]6CC(=CN6C5=O)C)OC [SG3199]; conditions: max 0.001 µM
# Procedure, shortened: as §1
# [34] = compound: CCN(CCO)CCCOc1ccc2c(Nc3cc(CC(=O)Nc4cccc(F)c4)[nH]n3)ncnc2c1 [AZD2811]; conditions: max 1 µM
# Procedure, shortened: as §1
# [35] = compound: COc1cccc(OCCCN)c1-c1cc(Nc2cnc(C#N)cn2)n[nH]1 [Prexasertib]; conditions: max 1 µM
# Procedure, shortened: as §1
Cell Line,"IC50, cell viability 72 h [1]","IC50, cell viability 72 h [2]","IC50, cell viability 72 h [3]","IC50, cell viability 72 h [4]","IC50, cell viability 72 h [5]","IC50, cell viability 72 h [6]","IC50, cell viability 72 h [7]","IC50, cell viability 72 h [8]","IC50, cell viability 72 h [9]","IC50, cell viability 72 h [10]","IC50, cell viability 72 h [11]","IC50, cell viability 72 h [12]","IC50, cell viability 72 h [13]","IC50, cell viability 72 h [14]","IC50, cell viability 72 h [15]","IC50, cell viability 72 h [16]","IC50, cell viability 72 h [17]","IC50, cell viability 72 h [18]","IC50, cell viability 72 h [19]","IC50, cell viability 72 h [20]","IC50, cell viability 72 h [21]","IC50, cell viability 72 h [22]","IC50, cell viability 72 h [23]","IC50, cell viability 72 h [24]","IC50, cell viability 72 h [25]","IC50, cell viability 72 h [26]","IC50, cell viability 72 h [27]","IC50, cell viability 72 h [28]","IC50, cell viability 72 h [29]","IC50, cell viability 72 h [30]","IC50, cell viability 72 h [31]","IC50, cell viability 72 h [32]","IC50, cell viability 72 h [33]","IC50, cell viability 72 h [34]","IC50, cell viability 72 h [35]"
D-263MG (Glioblastoma),> 0.3 µM,> 10 µM,> 10 µM,> 10 µM,> 1 µM,> 10 µM,> 10 µM,> 3 µM,> 1 µM,2.49 µM,> 1 µM,7.08 µM,> 10 µM,0.858 µM,> 10 µM,> 10 µM,> 1 µM,> 2 µM,> 1 µM,7.85 µM,> 1 µM,> 10 µM,0.114 µM,> 10 µM,> 5 µM,0.0761 µM,> 20 µM,> 10 µM,> 10 µM,> 0.3 µM,> 10 µM,> 10 µM,> 0.001 µM,> 1 µM,0.125 µM
EFM-19 (Breast Carcinoma),> 0.3 µM,> 10 µM,0.564 µM,> 10 µM,> 1 µM,> 10 µM,> 10 µM,> 3 µM,> 1 µM,2.09 µM,> 1 µM,> 10 µM,> 10 µM,> 1 µM,> 10 µM,> 10 µM,> 1 µM,> 2 µM,> 1 µM,> 10 µM,> 1 µM,> 10 µM,0.288 µM,> 10 µM,> 5 µM,0.0269 µM,> 20 µM,> 10 µM,> 10 µM,> 0.3 µM,> 10 µM,> 10 µM,> 0.001 µM,> 1 µM,> 1 µM
EW-24 (Ewing's Sarcoma),> 0.3 µM,> 10 µM,2.45 µM,8.42 µM,> 1 µM,5.33 µM,> 10 µM,> 3 µM,> 1 µM,> 3 µM,> 1 µM,> 10 µM,> 10 µM,> 1 µM,> 10 µM,> 10 µM,> 1 µM,> 2 µM,> 1 µM,> 10 µM,0.204 µM,> 10 µM,0.0129 µM,> 10 µM,> 5 µM,0.255 µM,> 20 µM,> 10 µM,> 10 µM,0.031 µM,> 10 µM,> 10 µM,> 0.001 µM,> 1 µM,0.12 µM
EoL-1-cell (Acute Myeloid Leukemia),> 0.3 µM,4.64 µM,6.19 µM,,0.0618 µM,0.157 µM,2.29 µM,> 3 µM,0.0413 µM,0.158 µM,0.0606 µM,0.0428 µM,> 10 µM,0.0691 µM,3.19 µM,> 10 µM,> 1 µM,0.00561 µM,0.0155 µM,0.765 µM,0.00851 µM,1.55 µM,0.00599 µM,> 10 µM,0.506 µM,0.00412 µM,3.96 µM,> 10 µM,4.05 µM,0.0067 µM,> 10 µM,> 10 µM,> 0.001 µM,0.00992 µM,0.00487 µM
Hs-766T (Pancreatic Carcinoma),> 0.3 µM,> 10 µM,> 10 µM,> 10 µM,> 1 µM,> 10 µM,> 10 µM,> 3 µM,> 1 µM,> 3 µM,> 1 µM,> 10 µM,> 10 µM,> 1 µM,> 10 µM,> 10 µM,> 1 µM,> 2 µM,0.113 µM,> 10 µM,> 1 µM,5.43 µM,> 0.3 µM,> 10 µM,> 5 µM,> 3 µM,> 20 µM,> 10 µM,> 10 µM,> 0.3 µM,> 10 µM,> 10 µM,> 0.001 µM,> 1 µM,0.163 µM
